Laboratory results taken from US20180000768A1, “INTESTINAL FXR AGONISM ENHANCES GLP-1 SIGNALING TO RESTORE PANCREATIC BETA CELL FUNCTIONS” (Salk Institute for Biological Studies, priority 2015, published 2018).
“Also recorded” adds a separate entry of the source.

Experiments:
[1] = test system: ob/ob mice; assay: gene expression (RNA-Seq, QPCR) in tissues of treated ob/ob mice; assay type: in vivo, mouse
Description: Total RNA was isolated from cell pellets treated with RNAlater using the RNA mini kit (Qiagen) and treated with DNaseI (Qiagen) for 30 minutes at room temperature. Sequencing libraries were prepared from 100-500 ng total RNA using the TruSeq RNA Sample Preparation Kit v2 (Illumina) according to the manufacturer's protocol. Briefly, mRNA was purified, fragmented, and used for first-, then second-strand cDNA synthesis followed by adenylation of 3′ ends. Samples were ligated to unique adapters and subjected to PCR amplification. Mulitplexed libraries were then validated using the 2100 BioAnalyzer (Agilent), normalized, and pooled for sequencing. RNA-Seq libraries prepared from two biological replicates for each experimental condition were sequenced on the Illumina HiSeq 2500 using bar-coded multiplexing and a 100 bp read length.
Image analysis and base calling were performed with Illumina CASAVA-1.8.2. This yielded a median of 29.9M usable reads per sample. Short read sequences were mapped to a UCSC mm9 reference sequence using the RNA-seq aligner STAR. Known splice junctions from mm9 were supplied to the aligner and de novo junction discovery was also permitted. Differential gene expression analysis, statistical testing and annotation were performed using Cuffdiff 2. Transcript expression was calculated as gene-level relative abundance in fragments per kilobase of exon model per million mapped fragments and employed correction for transcript abundance bias. RNA-Seq results for genes of interest were also explored visually using the UCSC Genome Browser.

[2] = test system: enteroendocrinal L cells; assay: Gene expression analysis (QPCR) in enteroendocrinal L cells; assay type: cell-based, human
[3] = test system: Human intestinal L cells; assay: maintenance of ATP levels under bethanechol chloride; assay type: cell-based; conditions: L cells incubated with bethanechol chloride; DMSO-treated L cells 67%
Description: To further examine how this increase in respiratory capacity affects L cell bioenergetics, the maintenance of ATP levels under energetic demanding conditions was evaluated. Human intestinal L cells treated with DMSO or Fex were incubated with the muscarinic receptor agonist bethanechol chloride and residual ATP levels determined. […] Fex-treated L cells were able to maintain 83% of the initial ATP abundance whereas DMSO-treated L cells were able to maintain 67% (FIG. 7D). Thus, Fex enhances overall mitochondrial bioenergetics in enteroendocrinal L cells.

[4] = test system: human intestinal epithelial Caco2 cells; assay: in vitro permeability in Caco2 cells; conditions: Caco2 cells, 2 hour incubation
[5] = in vitro permeability in Caco2 cells; conditions: human; for Papp A→B at 2 h, 10 μM: Caco2 cells, assay conc. 10 μM
[6] = test system: Leptin-deficient ob/ob mice; assay: metabolic phenotype and glucose homeostasis of treated ob/ob mice; assay type: in vivo, mouse; conditions: Fex 100 mg/kg/day, reduced treatment duration (2 weeks)
[7] = test system: pancreatic islets from ob/ob mice; assay: Insulin secretion assay on isolated pancreatic islets (ex vivo); assay type: cell-based, mouse; conditions: islets from Fex-treated mice
Description: Mouse pancreatic islets were isolated from ob/ob mice according to a method used for rats traditionally. Briefly, 0.5 mg/ml collagenase P (Roche) diluted in HBSS buffer was injected through the common bile duct and the perfused pancreas was dissected and incubated in water bath with 37° C. for 21 minutes. Digested exocrine cells and intact islets were separated using Histopaque-1077 (SIGMA) with centrifugation by 900 g for 15 minutes and intact islets were picked up manually.
Insulin release from intact islets was monitored using batch incubation methods.
Isolated pancreatic islets were cultured over-night with […] supplemented with 10% (v/v) fetal bovine serum and 1% (v/v) Antibiotics-antimycotic solution, were pre-cultured at 37° C. for 30 minutes in Krebs Ringer bicarbonate buffer (KRBH) containing 129.4 mM NaCl, 3.7 mM KCl, 2.7 mM CaCl2, 1.3 mM KH2PO4, 1.3 mM MgSO4, 24.8 mM NaHCO3 (equilibrated with 5% CO2, 95% O2, pH7.4), 10 mM HEPES and 0.2% (v/v) BSA (fraction V) with 3 mM glucose. N ext, the pancreatic islets were incubated for 30 minutes KRBH buffer (500 μl/10 islets) with 3 mM or 20 mM glucose with or without 100 nM Exendin-4 to determine insulin secretion levels. At the end of the incubation period, islets were pelleted by centrifugation, and aliquots of the buffer were sampled. The amounts of insulin were determined by Rat/mouse Insulin ELISA KIT (Millipore) for mice islets.

- in vitro permeability [4]: low
- Papp B→A at 2 h, 10 μM ([5]; Caco-2): 0.77 ×10⁻⁶ cm/s
- recovery at 2 h, 10 μM ([5]; Caco-2): 150%
- Papp A→B at 2 h, 10 μM ([5]; Caco-2, A-B Permeability Ranking): < 1 ×10⁻⁶ cm/s
- Papp A→B at 2 h, 10 μM ([5]; Caco-2, Mean Papp, A-B, 2 hour incubation): 0.597 ×10⁻⁶ cm/s
Compound: COC(=O)/C=C/c1cccc(N(Cc2ccc(-c3ccc(N(C)C)cc3)cc2)C(=O)C2CCCCC2)c1 [Fexaramine]
- FXR target genes SHP and FGF15 in the intestine ([1]; Fex 100 mg/kg daily P.O., 5 weeks, ileum): markedly upregulated
- expression of the GLP-1 receptor in islets ([1]; Fex 100 mg/kg for 5 weeks, listed as Fex): increased expression; also recorded: significantly increased
- DPP4 expression [2]: no effect
- proglucagon expression [2]: no effect
- SHP expression (FXR target gene) ([2]; listed as Fex): induced; also recorded: induction
- residual ATP, % of the initial ATP abundance maintained [3]: 83%
- fasting glucose levels [6]: little effect
- ex vivo insulin secretion in response to 20 mM glucose [7]: dramatically increased
- insulin content in ex vivo islets [7]: significantly higher
